In the NIST ThermoML archive (doi:10.1016/j.jct.2015.01.001):

Test: mn = molality of the nth substance listed, in mol/kg
Conditions: Liquid; for viscosity: Falling or rolling sphere viscometry; for mass density: Vibrating tube method

S [hydrogen sulfide] + O=S1(=O)CCCC1
Conditions	mass density [kg/m3]	viscosity [mPa·s]
303.15 K, 86.7 kPa, m1 = 0.389	1257	9.33
303.15 K, 137.1 kPa, m1 = 0.623	1255	8.58
303.15 K, 193.6 kPa, m1 = 0.915	1253	7.76
303.15 K, 230.1 kPa, m1 = 1.128	1251	6.88
303.15 K, 304.1 kPa, m1 = 1.435	1248	6.31
303.15 K, 364.8 kPa, m1 = 1.764	1246	5.55
303.15 K, 401.1 kPa, m1 = 2.032	1244	5.09
303.15 K, 503.2 kPa, m1 = 2.605	1242	4.44
303.15 K, 616.7 kPa, m1 = 3.291	1238	3.7
303.15 K, 738.4 kPa, m1 = 4.17	1237	2.95
303.15 K, 889.7 kPa, m1 = 5.327	1233	2.08
303.15 K, 1040.5 kPa, m1 = 6.929	1230	1.47
313.15 K, 160.8 kPa, m1 = 0.626	1246	6.7
313.15 K, 227 kPa, m1 = 0.884	1242	6.03
313.15 K, 273.9 kPa, m1 = 1.021	1242	5.5
313.15 K, 362.7 kPa, m1 = 1.408	1238	5.07
313.15 K, 419.7 kPa, m1 = 1.723	1236	4.54
313.15 K, 481.3 kPa, m1 = 2.009	1234	4.02
313.15 K, 586.5 kPa, m1 = 2.375	1231	3.74
313.15 K, 718.4 kPa, m1 = 3.078	1228	3.07
313.15 K, 859.9 kPa, m1 = 3.931	1225	2.44
313.15 K, 1035.5 kPa, m1 = 5.164	1223	1.8
323.15 K, 76.1 kPa, m1 = 0.222	1243	6.09
323.15 K, 118.7 kPa, m1 = 0.378	1242	5.55
323.15 K, 190.1 kPa, m1 = 0.579	1239	5.16
323.15 K, 267.2 kPa, m1 = 0.823	1236	4.49
323.15 K, 317.2 kPa, m1 = 1.009	1234	4.35
323.15 K, 430.1 kPa, m1 = 1.389	1229	3.74
323.15 K, 490.4 kPa, m1 = 1.704	1226	3.41
323.15 K, 565.2 kPa, m1 = 1.985	1223	3.09
323.15 K, 688.7 kPa, m1 = 2.348	1220	2.86
323.15 K, 843.7 kPa, m1 = 3.097	1216	2.35
323.15 K, 1009.9 kPa, m1 = 3.97	1215	1.89
333.15 K, 88.3 kPa, m1 = 0.218	1233	4.78
333.15 K, 139.2 kPa, m1 = 0.372	1231	4.65
333.15 K, 219.9 kPa, m1 = 0.571	1228	4.29
333.15 K, 314.1 kPa, m1 = 0.811	1225	3.86
333.15 K, 370.5 kPa, m1 = 0.995	1223	3.58
333.15 K, 505.9 kPa, m1 = 1.368	1219	3.17
333.15 K, 576.7 kPa, m1 = 1.681	1215	2.8
333.15 K, 664 kPa, m1 = 1.959	1212	2.55
333.15 K, 800 kPa, m1 = 2.462	1208	2.29
343.15 K, 96 kPa, m1 = 0.205	1223	3.95
343.15 K, 159.7 kPa, m1 = 0.347	1220	3.74
343.15 K, 253.3 kPa, m1 = 0.563	1218	3.5
343.15 K, 368.1 kPa, m1 = 0.797	1215	3.13
343.15 K, 428.2 kPa, m1 = 0.981	1214	2.99
343.15 K, 590.6 kPa, m1 = 1.347	1211	2.65
343.15 K, 678.9 kPa, m1 = 1.654	1204	2.34
343.15 K, 782.1 kPa, m1 = 1.927	1202	2.18
343.15 K, 914 kPa, m1 = 2.221	1200	2.01
343.15 K, 1119.8 kPa, m1 = 2.876	1196	1.65
353.15 K, 116.1 kPa, m1 = 0.202	1216	3.24
353.15 K, 179.9 kPa, m1 = 0.319	1214	3.11
353.15 K, 288.8 kPa, m1 = 0.546	1210	2.69
353.15 K, 427.9 kPa, m1 = 0.802	1209	2.53
353.15 K, 494.2 kPa, m1 = 0.965	1206	2.46
353.15 K, 683.1 kPa, m1 = 1.324	1199	2.2
353.15 K, 795.9 kPa, m1 = 1.624	1195	1.98
353.15 K, 911.1 kPa, m1 = 1.894	1193	1.81
363.15 K, 131.7 kPa, m1 = 0.195	1208	2.71
363.15 K, 201.9 kPa, m1 = 0.304	1206	2.61
363.15 K, 327.1 kPa, m1 = 0.504	1202	2.46
363.15 K, 494.7 kPa, m1 = 0.767	1199	2.21
363.15 K, 565.7 kPa, m1 = 0.912	1196	2.05
363.15 K, 784.2 kPa, m1 = 1.3	1190	1.74
363.15 K, 928.7 kPa, m1 = 1.591	1185	1.5
363.15 K, 1052.3 kPa, m1 = 1.86	1184	1.37
